Measured values: PubChem BioAssay (NCI)
“And” between values parts separate entries of the source, which are not always exact repeats. Equal values may be shown once.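 Exposure lasted 48 hours, with cells grown in 96-well plates and compounds tested at five concentrations. At the GI50, growth is halved. TGI marks complete inhibition of growth.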

Tests used:
Assay in all cases: NCI anticancer screen, dose series, 48 h
[1] = tested on: SK-MEL-5 melanoma
[2] = tested on: SF-539 CNS
[3] = tested on: HT29 colon
[4] = tested on: OVCAR-8 ovarian
[5] = tested on: SF-295 CNS
[6] = tested on: SN12C renal
[7] = tested on: SW-620 colon
[8] = tested on: BT-549 breast
[9] = tested on: RXF 393 renal
[10] = tested on: NCI-H522 lung

SMILES | GI50 [1] | TGI [1] | GI50 [2] | TGI [2] | GI50 [3] | TGI [3] | GI50 [4] | TGI [4] | GI50 [5] | TGI [5] | GI50 [6] | TGI [6] | GI50 [7] | TGI [7] | GI50 [8] [µM] | TGI [8] | GI50 [9] | TGI [9] | TGI [10] | GI50 [10] [µM]
COc1ccc2c(C(=O)NCCCCCC(=O)O)cc3cc4c(cc3c2c1)OCO4 | > 100 µM | > 100 µM | > 100 µM | > 100 µM | > 100 µM | > 100 µM | > 100 µM | > 100 µM | > 100 µM | > 100 µM | > 100 µM | > 100 µM | > 100 µM | > 100 µM | 75.5 | > 100 µM | > 100 µM | > 100 µM |  | 
COC(=O)c1cccc(COc2ccc([N+](=O)[O-])cc2Cl)c1 |  | > 100 µM |  | > 100 µM |  | > 100 µM |  | > 100 µM |  | > 100 µM |  | > 100 µM |  | > 100 µM |  | > 100 µM |  | > 100 µM | > 100 µM | 
N[C@@H](Cc1ccc(N(CCCl)CCCl)cc1)C(=O)O | 27 µM and 18.4 µM | > 100 µM and 40 µM and 88 µM | 6.03 µM and 4.36 µM | 49.6 µM and 8.61 µM and 53.8 µM | 54.2 µM and 42.3 µM | > 100 µM and 235 µM | 27.7 µM and 19.7 µM | > 100 µM and 50.9 µM and 110 µM | 3.95 µM and 16 µM | 49.2 µM and 72.1 µM and 128 µM | 3.73 µM and 9.39 µM | > 100 µM and > 68.3 µM and 161 µM | 19.5 µM and 17.2 µM | > 100 µM and 56.8 µM and 157 µM | 27.8 | > 100 µM and 100 µM | 16.9 µM and 15.9 µM | 47.1 µM and 32.9 µM and 69.9 µM | 29.5 µM and 66.8 µM | 14.4
COc1ccc2nc3c(cc2c1)C(=O)CC(C(F)(F)F)C3 (stereo not drawn) | 0.545 µM | 9.75 µM | 1.74 µM | 5.64 µM | 0.433 µM | > 100 µM | 1.22 µM | > 100 µM | 1.41 µM | 23.3 µM | 0.805 µM | > 100 µM | 2.68 µM | > 100 µM | 3.1 | > 100 µM | 0.562 µM | 5.1 µM | > 100 µM | 0.49
CCN(CC)CCCNc1c2cc(OC)ccc2nc2cccc([N+](=O)[O-])c12 |  | 0.238 µM |  | 0.304 µM |  | 0.453 µM |  | 0.264 µM |  | 0.796 µM |  | 0.402 µM |  | 0.339 µM |  | 0.49 µM |  | 0.23 µM | 0.0284 µM | 
COc1cc(Nc2nccc(-c3cnn4ncccc34)n2)cc(OC)c1 | 0.151 µM | 3.19 µM | 0.0637 µM | 0.257 µM | 0.0842 µM | 0.709 µM | 0.0802 µM | > 12.7 µM | 0.0572 µM | 0.721 µM | 0.0942 µM | > 25 µM | 0.0758 µM | 4.78 µM | 0.0893 | 2.19 µM | 0.0455 µM | 0.131 µM | 0.619 µM | 0.079
Cc1cccc(C)c1NC(=O)/C(CC(=O)CC(c1ccccc1)c1c(O)c2ccccc2oc1=O)=N/O (stereo not drawn) |  | > 100 µM |  | > 100 µM |  | > 100 µM |  | > 100 µM |  | > 100 µM |  | > 100 µM |  | > 100 µM |  | > 100 µM |  | > 100 µM | > 100 µM | 
COc1nc(C(Cl)(Cl)Cl)c(Cl)c(OC)c1Cl | 19.6 µM | 34.5 µM and 83.2 µM | > 52 µM | > 86.8 µM and 77.2 µM | > 57 µM | 96.5 µM | > 61.5 µM | 55.6 µM |  | > 56.9 µM and 75.3 µM |  | > 52.9 µM and 74 µM | > 49.3 µM | > 74.8 µM and 75 µM |  | 71.3 µM |  | > 55.1 µM and 71.8 µM | > 31.6 µM and 70.4 µM | 
CCCCCCOc1ccc(/C=N/Nc2cc(C)nc3ccc(Br)cc23)cc1 | 1.67 µM | 3.04 µM | 1.87 µM | 3.29 µM | 1.63 µM | 3.12 µM | 2.07 µM | 4.12 µM | 1.72 µM | 3.2 µM | 1.69 µM | 3.17 µM | 1.56 µM | 3.56 µM | 1.91 | 3.91 µM | 1.55 µM | 2.95 µM | 3.32 µM | 1.7
CCCCCCCCCCCC(=O)[O][Sn]([CH2]CCC)([CH2]CCC)[CH2]CCC | 0.0302 µM | 0.0786 µM | 0.0609 µM | 0.141 µM | 0.0355 µM | 0.11 µM | 0.0842 µM | 0.363 µM | 0.0679 µM | 0.177 µM | 0.0767 µM | 0.221 µM | 0.0419 µM | 0.138 µM | 0.0623 | 0.184 µM | 0.0483 µM | 0.117 µM | 0.116 µM | 0.0409
O=P1(NCCCl)OCCC(OO)N1CCCl (stereo not drawn) |  | > 100 µM |  | 33 µM |  | > 81.9 µM |  | > 100 µM |  | > 100 µM |  | > 100 µM |  | 30.5 µM |  | > 100 µM |  | 32.4 µM | 25.6 µM | 
NC1=C(O)/C(=N/NS(=O)(=O)c2ccccc2)C(c2cccc(Cl)c2)O1 (stereo not drawn) |  | > 100 µM |  | > 81.8 µM |  | 55 µM |  | > 67.8 µM |  | > 100 µM |  | > 67.2 µM |  | 35.8 µM |  | > 100 µM |  | 29.6 µM | 26.4 µM | 
COc1ccc(/C=C/c2cnnc3ccccc23)cc1OC |  | > 10 µM |  | > 10 µM |  | > 10 µM |  | > 10 µM |  | > 10 µM |  | > 10 µM |  | > 10 µM |  | > 10 µM |  | > 10 µM | > 10 µM | 
Nc1c(C(=O)Nc2cccc3ccccc23)sc2nc3c(cc12)CCCCCC3 | 0.929 µM | 6.85 µM | 1.24 µM | > 50 µM | 1.67 µM | 5.58 µM | 2 µM | > 50 µM | 1.39 µM | > 50 µM | 3.4 µM | > 50 µM | 1.45 µM | > 50 µM | 0.954 | 4.81 µM | 1.5 µM | > 50 µM | 4.33 µM | 0.865
COc1cc2c(cc1OC)-c1c(c3ccc([N+](=O)[O-])cc3c(=O)n1CCCBr)C2=O | 1.72 µM | 23.7 µM | 10.4 µM | > 100 µM | 61.9 µM | > 100 µM | 38.5 µM | > 100 µM | 9.07 µM | > 100 µM | 4.31 µM | > 100 µM | 21.8 µM | > 100 µM | > 100 | > 100 µM | 44.3 µM | > 100 µM | > 100 µM | 6.41
CCCCCC(=O)OC[n+]1ccc(-c2c(COC(=O)NC(C)C)c(COC(=O)NC(C)C)c3n2CCC3)cc1 |  | > 100 µM |  | > 100 µM |  | > 100 µM |  | > 100 µM |  | > 100 µM |  | > 100 µM |  | > 100 µM |  | > 100 µM |  | > 100 µM | > 100 µM | 
